{
  "source": "patent US12208061B2",
  "about": "(EXORAO LIFE SCIENCE S.R.L., priority 2019, dated 2025)",
  "origin": "cited, not measured here",
  "key": {"[1]": {"system": "gram-positive bacteria or anaerobes", "conditions": "against gram-positive bacteria or anaerobes"}, "[2]": {"conditions": "solution for intravenous infusion"}, "[3]": {"system": "gram-negative aerobic pathogens including Pseudomonas aeruginosa", "conditions": "in vitro"}},
  "note": "Where two headings read alike, the source gives them in different places.",
  "data": [
    {"smiles": "C[C@H]1[C@H](NC(=O)/C(=N\\OC(C)(C)C(=O)O)c2csc(N)n2)C(=O)N1S(=O)(=O)O", "note": "[Aztreonam, (Z)-2-[[[(2-amino-4-thiazolyl)[[(2S,3S)-2-methyl-4-oxo-1-sulfo-3-azetidinyl]carbamoyl]methylene]amino]oxy]-2-methylpropionic acid]", "values": [
      {"measurement": "antimicrobial activity", "setting": "[1]", "value": "no useful activity"},
      {"measurement": "time within which reconstituted solution should be used", "setting": "[2]; controlled room temperature", "value": "≤ 48", "unit": "h"},
      {"measurement": "time within which reconstituted solution should be used", "setting": "[2]; refrigerated at 2° C. to 8° C.", "value": "within seven days"},
      {"measurement": "pH range over which antimicrobial activity is maintained", "setting": "[3]", "value": "6 to 8"}
    ]}
  ]
}
